Results on 3 molecules are retold here after article PMC10734772 (Turkish Journal of Chemistry, 2021).

In general, melting point refers to the temperature of the solid-liquid transition. `Cc1ccc(NC(=O)c2ccc(CN3CCN(c4ncccn4)CC3)cc2)cc1Br` [Compound 4a, N-(3-Bromo-4-methylphenyl)-4-((4-(pyrimidin-2-yl)piperazin-1-yl)methyl)benzamide]: the melting point is 105 °C.
Molecule `COc1ccc(CN2CCN(Cc3ccc(C(=O)Nc4ccc(C)c(Br)c4)cc3)CC2)c(OC)c1OC` [Compound 4b, N-(3-Bromo-4-metylphenyl)-4-((4-(2,3,4-trimethoxybenzyl)piperazin-1-yl)methyl)benzamide] gave a melting point of 135 °C.
As for `Cc1ccc(NC(=O)c2ccc(CN3CCOCC3)cc2)cc1Br` [Compound 4c, N-(3-Bromo-4-methylphenyl)-4-(morpholinomethyl)benzamide], the figure is 116 °C.
